Entries after “also recorded” stand apart in the source; their conditions may differ. Structures can show the parent of a compound that is named as a salt.
Tests used:
[1] = test system: RA synovial membrane cultures; assay: Spontaneous cytokine release from RA synovial membrane cultures (ELISA); assay type: cell-based, human
Experimental: Macrophages or RA synovial membrane cell cultures were stimulated with 10 ng/ml chloroform-extracted LPS, 10 ng/ml Pam3, 10 ng/ml Flagellin, 10 ng/ml Malp-2, 20 μg/ml poly IC, 2 μM CpG (human/mouse) or 1 μg/ml R-848 in complete media for 6 h. Supernatants from RA cultures were harvested after 24 hours.
(§1) Sandwich ELISAs were employed to measure TNF, (Pharmingen, UK). IP-10 (R&D, USA) and IL-1β (Bioscource. USA). Absorbance was read on a spectrophotometric ELISA plate reader (Labsystems Multiscan Biochromic) and analyzed using Ascent software V2.6 (Thermo Labsystems, Cambridge, United Kingdom). All results are expressed as the mean cytokine concentration±SD obtained from triplicate cultures per condition.
(§2) RA synovial membrane cells were isolated from patients undergoing joint replacement surgery as previously described (Foxwell et al., Proc. Natl. Acad. Sci. USA 95, 8211-8215, 1998). All patients gave written informed consent and the study was approved by the local ethics committee. Immediately after isolation, cells were used for mRNA analysis, stained by FACS or cultured at 1×10^5 cells/well in 96-well tissue culture plates (Falcon, UK) in RPMI 1640 containing 10% (v/v) FBS and 100 U/ml penicillin/streptomycin. Primary human synovial fibroblasts were cultured as described previously (Butler et al. Eur. Cytokine Netw. 5:441-8, 1994). Peripheral blood monocytes were isolated and cultured as previously described (Foxwell et al. Proc. Natl. Acad. Sci. USA 95, 8211-8215, 1998). Macrophages were derived from monocytes after differentiation for 4 days with 100 ng/ml M-CSF (PeproTech, UK). The mouse macrophage cell line RAW 264.7 was maintained in Dulbecco's modified Eagle's medium supplemented with 10% fetal bovine serum.
Rheumatoid arthritis synovial membrane cells were cultured for 24 hours in the presence of media alone or media containing 30 μg/ml mianserine hydrochloride. Supernatants were harvested and levels of cytokines (A) TNF (n=16) were measured by ELISA. […] A students paired t-test was used to analyse the data.

[2] = test system: TLR3 ligand poly IC induced IP-10; assay: Poly IC induced IP-10 production in human macrophages (ELISA); assay type: cell-based; details: 30 μg/ml, 20 μg/ml poly IC for 6 hours; hydrochloride
Experimental: (§3) Macrophages or RA synovial membrane cell cultures were stimulated with 10 ng/ml chloroform-extracted LPS, 10 ng/ml Pam3, 10 ng/ml Flagellin, 10 ng/ml Malp-2, 20 μg/ml poly IC, 2 μM CpG (human/mouse) or 1 μg/ml R-848 in complete media for 6 h. Supernatants from RA cultures were harvested after 24 hours. All reagents other than LPS were free from LPS contamination as assessed using the limulus amebocyte lysate (LAL) assay from Cambrex (USA).
as §1, §2
Primary human macrophages were incubated with 5 μg/ml of GBR12909, 5 μg/ml of clotrimazole, 5 μg/ml of Propidium iodide (PI), 30 μg/ml mianserine hydrochloride and 30 μg/ml promazine hydrochloride for 30 minutes and then stimulated for 6 hours with the TLR4 ligand LPS (FIG. 7A), with R848 a TLR7/8 ligand (FIG. 7, Graph B), or with poly IC a TLR3 ligand (FIG. 7C). Supernatants were collected and measured for TNF or IP-10.

[3] = test system: TLR9 ligand CpG induced TNF; assay: CpG induced TNF production in murine RAW 264.7 macrophages (ELISA); assay type: cell-based; details: 30 μg/ml, 30 minutes preincubation, CpG for 6 hours, RAW 264.7, n=2
Experimental: as §3, §1
(§4) RA synovial membrane cells were isolated from patients undergoing joint replacement surgery as previously described (Foxwell et al., Proc. Natl. Acad. Sci. USA 95, 8211-8215, 1998). All patients gave written informed consent and the study was approved by the local ethics committee. Immediately after isolation, cells were used for mRNA analysis, stained by FACS or cultured at 1×10^5 cells/well in 96-well tissue culture plates (Falcon, UK) in RPMI 1640 containing 10% (v/v) FBS and 100 U/ml penicillin/streptomycin. […]

[4] = test system: RA synovial membrane cultures; assay: Spontaneous cytokine release from RA synovial membrane cultures (ELISA); assay type: cell-based, human; details: 24 hours
[5] = test system: TLR7/8 ligand R-848 induced TNF; assay: R-848 induced TNF production in primary human macrophages (ELISA)
[6] = test system: TLR3 induced NF-κB activation; assay: NF-κB luciferase reporter assay in synovial fibroblasts stimulated with poly IC; assay type: cell-based, human; details: 30 μg/ml, 30 minutes preincubation, 20 μg/ml Poly IC for 6 h, n=3
Experimental: (§5) Synovial fibroblasts were cultured in a 96-well plate, infected with recombinant adenovirus containing a NF-κB Luciferase reporter gene at a MOI of 200:1. The cells were allowed to rest for 24 h prior to stimulation. Cells were preincubated with 30 μg/ml mianserine hydrochloride for 30 minutes, then stimulated with 10 ng/ml LPS or 20 μg/ml Poly IC for 6 h. The cells were then washed once in PBS and lysed with 100 μl of CAT lysis buffer (0.65% (v/v) of Nonidet P-40, 10 mM Tris-HCl pH 8, 0.1 mM EDTA pH 8, 150 mM NaCl). 50 μl of cell lysate were mixed with 120 μl luciferase assay buffer (25 mM Tris-phosphate pH 7.8, 8 mM MgCl2, 1 mM EDTA, 1% (v/v) Triton X-100, 1% (v/v) glycerol, 1 mM DTT, 0.5 mM ATP) in the well of a luminometer cuvette strip. Luciferase activity was measured with a Luminometer (Thermo Labsystems, U.K.) by adding […] of luciferin (Bright-Glo luciferase assay system; Promega, Madison, Wis.) per assay point.
(§6) RA synovial membrane cells were isolated from patients undergoing joint replacement surgery as previously described (Foxwell et al., Proc. Natl. Acad. Sci. USA 95, 8211-8215, 1998). All patients gave written informed consent and the study was approved by the local ethics committee. […]

[7] = test system: TLR ligands Pam3, flagellin, Malp-2 induced TNF; assay: Pam3, flagellin or Malp-2 induced TNF production in primary human macrophages (ELISA); assay type: cell-based; details: 30 μg/ml, 30 minutes preincubation
Experimental: as §3, §1, §4

[8] = test system: TLR4 ligand LPS induced TNF; assay: LPS induced TNF production in primary human macrophages (ELISA); assay type: cell-based; details: 30 μg/ml, 30 minutes preincubation, 10 ng/ml LPS for 6 hours; hydrochloride
Experimental: as §3, §1, §2
Primary human macrophages, murine RAW 264.7 cells and synovial fibroblasts were incubated with 30 μg/ml mianserine hydrochloride for 30 minutes and then stimulated for 6 hours with TLR ligands (R-848, Pam3, LPS, flagellin, malp-2, poly IC or CpG).

[9] = test system: LPS induced NF-κB activation (TLR4); assay: NF-κB luciferase reporter assay in synovial fibroblasts stimulated with LPS; assay type: cell-based, human; details: 30 μg/ml, 30 minutes preincubation, 10 ng/ml LPS for 6 h, n=3
Experimental: as §5, §6

[10] = test system: CIA model of rheumatoid arthritis; assay: Murine CIA model of rheumatoid arthritis; assay type: in vivo, Male DBA mice
Experimental: Male DBA mice (8-10 weeks of age) were immunized at the base of the tail intradermally with 200 μg type II collagen emulsified in CFA (Difco Laboratories, West Molesey, U.K.). The onset of arthritis was considered to be the day that erythema and/or swelling were first observed, and arthritic mice were given a daily clinical score per limb from 0 to 3, with 0=normal, 1=slight erythema and swelling, 2=pronounced edematous swelling and 3=joint deformity with ankylosis, resulting in a maximum score of 12 per animal. Mianserine treatment started on the day of onset and was administered daily for 7 days. Paw swelling was assessed by measuring hind paw thickness using calipers.
The experiment was started at the onset of arthritis (day 1). Mice were given an interperitoneal injection of vehicle (PBS), 4 mg/kg or 10 mg/kg of mianserine hydrochloride once a day for 7 days. Mice were assessed for (FIG. 2A) clinical score and (FIG. 2B) paw swelling on a daily basis.

[11] = 4 mg/kg interperitoneal once a day for 7 days
[12] = 10 mg/kg interperitoneal once a day for 7 days

CN1CCN2c3ccccc3Cc3ccccc3C2C1 (stereo not shown) [mianserine hydrochloride]
inhibition of TNF, dose dependence ([1]; 10 μg/ml, 20 μg/ml and 30 μg/ml): dose dependently inhibited
inhibition of spontaneous TNF production ([1]; 30 μg/ml, 24 hours): able to inhibit
decrease in the levels of TNF ([1]; 30 μg/ml, 24 hours, n=16, p=0.0007): 59%±13
inhibition of Poly IC induced IP-10 production [2]: inhibits TLR3 induced signalling; also recorded: able to inhibit
inhibition of CpG induced TNF production [3]: able to inhibit TNF production
inhibition of spontaneous TNF production ([4]; 20 μg/ml): able to inhibit
decrease of TNF levels (positive control) [4]: able to decrease the TNF levels
inhibitory effect on TNF production at rising R-848 ([5]; 5 μg/ml with 0.3, 1, 10 or 20 μg/ml R-848, 6 hours): diminished with increasing concentrations of R-848
inhibition of R-848 induced TNF production ([5]; 30 μg/ml, 30 minutes preincubation, 1 μg/ml R-848 for 6 hours, hydrochloride): decreased production of TNF; also recorded: able to suppress
mode of inhibition of R-848 induced TNF production ([5]; 2.5, 5 or 10 μg/ml with 0.3, 1, 10 or 20 μg/ml R-848, 6 hours, three donors): competitively inhibits
inhibition of TLR3 induced NF-κB activation [6]: significantly inhibit
decreased production of TNF in response to Malp-2 ([7]; Malp-2 for 6 hours): not
decreased production of TNF in response to flagellin ([7]; flagellin for 6 hours): not
inhibition of LPS induced TNF production [8]: not and None of the drugs tested were able to inhibit
effect on LPS induced NF-κB activation [9]: no effect
clinical score [10, 11]: did not produce as great an effect as the 10 mg/kg group
hind paw swelling [10, 11]: no significant improvement
histology scoring [10, 11]: an improvement in the score
hind paw swelling [10, 12]: significant improvement throughout the study
histology scoring [10, 12]: significant effect
histology of hind paws: bone destruction and cell infiltration ([10]; interperitoneal once a day for 7 days): clear reduction in both bone destruction and cell infiltration into the joint
clinical score ([10]; interperitoneal once a day for 7 days from onset, statistics for 10 mg/kg group versus vehicle, n=7): significant improvement to the control group from day 3 onwards

From patent US20100273750A1, “SEROTONIN RECEPTOR ANTAGONISTS FOR TREATING ARTHRITIS” (IMPERIAL INNOVATIONS LIMITED, priority 2007, published 2010)
